Patent US9340819B2, “Method for detecting the presence of carbapenemase-producing bacteria in a sample” (priority 2011, dated 2016)
Values after ≈ are worked out from the molar mass of the structure shown.

Columns and labels:
K. pneumoniae [1] = test: MIC of carbapenem by Etest (Example 2); assay type: cell-based, Klebsiella pneumoniae
Method: (§1) All strains had previously been characterized for their β-lactamase content at the molecular level. Minimum inhibitory concentration of carbapenem were determined using the Etest® (AB bioMérieux, Solna, Sweden) and results were recorded according to US guidelines (CLSI), as updated in 2011.

P. rettgeri [2] = test: MIC of carbapenem by Etest (Example 2); assay type: cell-based, Proteus rettgeri
Method: as §1

P. rettgeri [3] = test: MIC by Etest on Mueller-Hinton agar (Example 1); assay type: cell-based, Proteus rettgeri; settings: Providencia rettgeri; P. rettgeri RAP (9); OXA-181 + OXA-1
Method: (§2) Prior to performing the method of the invention, susceptibility testings were performed by determining Minimum Inhibitory Concentration (MIC) values by the Etest® (AB bioMérieux; Solna, Sweden) on Mueller-Hinton agar plates at 37° C. and results of susceptibility testing were recorded according to the Clinical and Laboratory Standards Institute (CLSI) guidelines as modified in June 2010 (18). The breakpoints for imipenem are S≦1 μg/ml (susceptibility) and R≧4 μg/ml (resistant). As for those for ertapenem, they are S≦0.25 μg/ml and R≧1 μg/ml (see Tables 1 and 2).

E. asburiae = test: MIC of carbapenem by Etest (Example 2); assay type: cell-based, Enterobacter asburiae; settings: E. asburiae IMI-2, n=1
Method: as §1

S. marcescens = test: MIC of carbapenem by Etest (Example 2); assay type: cell-based, Serratia marcescens
Method: as §1

C. freundii [4] = test: MIC of carbapenem by Etest (Example 2); assay type: cell-based, Citrobacter freundii
Method: as §1

P. stuartii [5] = test: MIC by Etest on Mueller-Hinton agar (Example 1); assay type: cell-based; settings: Providencia stuartii, NDM-1 + OXA-1 + CMY-6
Method: as §2

K. pneumoniae [6] = test: MIC by Etest on Mueller-Hinton agar (Example 1); assay type: cell-based; settings: Klebsiella pneumoniae
Method: as §2

E. cloacae [7] = test: MIC by Etest on Mueller-Hinton agar (Example 1); assay type: cell-based; settings: Enterobacter cloacae
Method: as §2

C. freundii [8] = test: MIC by Etest on Mueller-Hinton agar (Example 1); assay type: cell-based; settings: Citrobacter freundii; C. freundii STE (13); NDM-1 + OXA-1 + OXA-9 + OXA-10 + CTX-M-15 + TEM-1
Method: as §2

P. mirabilis [9] = test: MIC by Etest on Mueller-Hinton agar (Example 1); assay type: cell-based; settings: Proteus mirabilis, plasmid mediated cephalosporinase ACC-1
Method: as §2

E. aerogenes = test: MIC of carbapenem by Etest (Example 2); assay type: cell-based, Enterobacter aerogenes
Method: as §1

M. morganii = test: MIC of carbapenem by Etest (Example 2); assay type: cell-based, Morganella morganii; settings: Plasmid mediated AmpC or chromosomal AmpC + decreased membrane permeability; M. morganii Overexpressed cephalosporinase, n=2
Method: as §1

E. coli = test: MIC of carbapenem by Etest (Example 2); assay type: cell-based, Escherichia coli
Method: as §1

P. mirabilis [10] = test: MIC of carbapenem by Etest (Example 2); assay type: cell-based, Proteus mirabilis; settings: Plasmid mediated AmpC or chromosomal AmpC + decreased membrane permeability; P. mirabilis ACC-1, n=1
Method: as §1

P. stuartii [11] = test: MIC of carbapenem by Etest (Example 2); assay type: cell-based, Providencia stuartii; settings: P. stuartii NDM-1, n=1
Method: as §1

E. cloacae [12] = test: MIC of carbapenem by Etest (Example 2); assay type: cell-based, Enterobacter cloacae
Method: as §1

## C[C@@H](O)[C@H]1C(=O)N2C(C(=O)O)=C(SCCN=CN)C[C@H]12 [IMP, imipenem]
K. pneumoniae [1]; ESBL + decreased membrane permeability, K. pneumoniae CTX-M-15, n=8
  MICs range: 0.25 to 8 mg/L
K. pneumoniae [1]; ESBL + decreased membrane permeability, K. pneumoniae SHV-2a, n=1
  MICs range: 0.25 mg/L
K. pneumoniae [1]; ESBL + decreased membrane permeability, K. pneumoniae SHV-28, n=1
  MICs range: 1 mg/L
K. pneumoniae [1]; ESBLs, K. pneumoniae CTX-M-3, n=1
  MICs range: 0.12 mg/L
K. pneumoniae [1]; ESBLs, K. pneumoniae CTX-M-14, n=1
  MICs range: 0.12 mg/L
K. pneumoniae [1]; ESBLs, K. pneumoniae CTX-M-15, n=3
  MICs range: 0.12 mg/L
K. pneumoniae [1]; K. pneumoniae IMP-1, n=5
  MICs range: 0.5 to 8 mg/L
K. pneumoniae [1]; K. pneumoniae IMP-8, n=2
  MICs range: 0.5 to 1 mg/L
K. pneumoniae [1]; K. pneumoniae KPC-3, n=3
  MICs range: 0.5 to 8 mg/L
K. pneumoniae [1]; K. pneumoniae NDM-4, n=1
  MICs range: >32 mg/L
K. pneumoniae [1]; K. pneumoniae OXA-181, n=2
  MICs range: 0.5 to 1 mg/L
K. pneumoniae [1]; K. pneumoniae VIM-19, n=1
  MICs range: 8 mg/L
K. pneumoniae [1]; Plasmid mediated AmpC or chromosomal AmpC + decreased membrane permeability, K. pneumoniae DHA-1, n=1
  MICs range: >32 mg/L
K. pneumoniae [1]; Plasmid mediated AmpC or chromosomal AmpC + decreased membrane permeability, K. pneumoniae DHA-2, n=1
  MICs range: 0.12 mg/L
P. rettgeri [2]; P. rettgeri NDM-1, n=1
  MICs range: 3 mg/L
P. rettgeri [2]; P. rettgeri OXA-181, n=1
  MICs range: 8 mg/L
P. rettgeri [3]
  MIC: 1 µg/mL
E. asburiae
  MICs range: >32 mg/L
S. marcescens; S. marcescens IMP-11, n=1
  MICs range: 8 mg/L
S. marcescens; S. marcescens KPC-2, n=2
  MICs range: >32 mg/L
S. marcescens; S. marcescens SME-1, n=1
  MICs range: 32 mg/L
S. marcescens; S. marcescens SME-2, n=1
  MICs range: 32 mg/L
S. marcescens; S. marcescens VIM-2, n=1
  MICs range: >32 mg/L
C. freundii [4]; C. freundii NDM-1, n=1
  MICs range: >32 mg/L
C. freundii [4]; ESBL + decreased membrane permeability, C. freundii TEM-3, n=1
  MICs range: 1 mg/L
P. stuartii [5]
  MIC: > 32 µg/mL
K. pneumoniae [6]; CIP53153, K. pneumoniae CIP53153 (30), wild-type
  MIC: 0.19 µg/mL (≈ 0.635 µM)
K. pneumoniae [6]; K. pneumoniae 1 OMA (11), NDM-1 + CTX-M-15 + OXA-1 + OXA-9
  MIC: > 32 µg/mL
K. pneumoniae [6]; K. pneumoniae 2 OMA, NDM-1 + OXA-1
  MIC: > 32 µg/mL
K. pneumoniae [6]; K. pneumoniae 7 AFR, NDM-1 + OXA-1 + CTX-M-15 + CMY-6 + TEM-1
  MIC: > 32 µg/mL
K. pneumoniae [6]; K. pneumoniae 6299 (19), ESBL OXA-163
  MIC: 0.19 µg/mL (≈ 0.635 µM)
K. pneumoniae [6]; K. pneumoniae 6759 GEN, NDM-1 + CTX-M-15 + OXA-1 + OXA-9 + OXA-10 + CMY16
  MIC: 6 µg/mL
K. pneumoniae [6]; K. pneumoniae (16), ESBL CTX-M-15
  MIC: 0.19 µg/mL (≈ 0.635 µM)
K. pneumoniae [6]; K. pneumoniae BEL, OXA-48
  MIC: 1 µg/mL (≈ 3.34 µM)
K. pneumoniae [6]; K. pneumoniae BER (28), porin deficiency associated with ESBL, TEM
  MIC: 0.5 µg/mL (≈ 1.67 µM)
K. pneumoniae [6]; K. pneumoniae BIC (4), OXA-48
  MIC: 0.5 µg/mL (≈ 1.67 µM)
K. pneumoniae [6]; K. pneumoniae CHA (5), OXA-48 + TEM-1
  MIC: 0.5 µg/mL
K. pneumoniae [6]; K. pneumoniae COO (27), porin deficiency associated with ESBL, CTX-M-15 + SHV-28
  MIC: 0.5 µg/mL
K. pneumoniae [6]; K. pneumoniae DIN, NDM-1
  MIC: 8 µg/mL (≈ 26.7 µM)
K. pneumoniae [6]; K. pneumoniae EGY, OXA-48 + CTX-M-15
  MIC: 2 µg/mL
K. pneumoniae [6]; K. pneumoniae H1516-6 COL (3), KPC-2 + TEM-1 + CTXM-15
  MIC: 2 µg/mL
K. pneumoniae [6]; K. pneumoniae HOL, OXA-181 + CTX-M-15
  MIC: 0.5 µg/mL
K. pneumoniae [6]; K. pneumoniae IND, NDM-1 + OXA-1 + CTX-M-15
  MIC: 6 µg/mL
K. pneumoniae [6]; K. pneumoniae MAD (15), IMP-13
  MIC: 0.5 µg/mL (≈ 1.67 µM)
K. pneumoniae [6]; K. pneumoniae MAD, VIM-1 + CTX-M-3
  MIC: > 32 µg/mL
K. pneumoniae [6]; K. pneumoniae OMA (8), OXA-181 + CTXM-15 + OXA-1
  MIC: 0.5 µg/mL
K. pneumoniae [6]; K. pneumoniae RAM, OXA-48
  MIC: 1 µg/mL (≈ 3.34 µM)
K. pneumoniae [6]; K. pneumoniae SAB, NDM-1
  MIC: 2 µg/mL (≈ 6.68 µM)
K. pneumoniae [6]; K. pneumoniae UK (10), NDM-1 + CTX-M-15 + CMY-4 + OXA-1
  MIC: 8 µg/mL
E. cloacae [7]; E. cloacae 2185, ESBL OXA-163
  MIC: 0.19 µg/mL (≈ 0.635 µM)
E. cloacae [7]; E. cloacae (1), KPC-2
  MIC: 4 µg/mL (≈ 13.4 µM)
E. cloacae [7]; E. cloacae (17), ESBL CTX-M-15
  MIC: 0.19 µg/mL (≈ 0.635 µM)
E. cloacae [7]; E. cloacae ARF (25), overexpression of chromosomal cephalosporinase AmpC
  MIC: 0.38 µg/mL (≈ 1.27 µM)
E. cloacae [7]; E. cloacae BLA, overexpression of chromosomal cephalosporinase AmpC
  MIC: 0.38 µg/mL (≈ 1.27 µM)
E. cloacae [7]; E. cloacae CON (26), overexpression of chromosomal cephalosporinase AmpC
  MIC: 0.5 µg/mL (≈ 1.67 µM)
E. cloacae [7]; E. cloacae IR38, NDM-1 + CTX-M-15
  MIC: > 32 µg/mL
E. cloacae [7]; E. cloacae TUR (6), OXA-48 + SHV-5
  MIC: 0.5 µg/mL
E. cloacae [7]; E. cloacae, ESBL VEB-1
  MIC: 0.19 µg/mL (≈ 0.635 µM)
C. freundii [8]
  MIC: > 32 µg/mL
P. mirabilis [9]
  MIC: 0.19 µg/mL (≈ 0.635 µM)
E. aerogenes; E. aerogenes KPC-2, n=1
  MICs range: 8 mg/L
E. aerogenes; Plasmid mediated AmpC or chromosomal AmpC + decreased membrane permeability, E. aerogenes Overexpressed cephalosporinase, n=1
  MICs range: 1 mg/L
M. morganii
  MICs range: 1.5 to 2^ mg/L
E. coli; E. coli IMP-1, n=2
  MICs range: 0.5 mg/L
E. coli; E. coli IMP-8, n=1
  MICs range: 6 mg/L
E. coli; E. coli KPC-2, n=5
  MICs range: 0.5 to 4 mg/L
E. coli; E. coli NDM-1, n=7
  MICs range: 1 to 16 mg/L
E. coli; E. coli OXA-48, n=6
  MICs range: 0.38 to 3 mg/L
E. coli; E. coli VIM-1, n=2
  MICs range: 1.5 to 3 mg/L
E. coli; E. coli VIM-2, n=2
  MICs range: 2 to 4 mg/L
E. coli; E. coli VIM-19, n=1
  MICs range: 8 mg/L
E. coli; ESBLs, E. coli CTX-M-1, n=1
  MICs range: 0.12 mg/L
E. coli; ESBLs, E. coli CTX-M-3, n=1
  MICs range: 0.12 mg/L
E. coli; ESBLs, E. coli CTX-M-14, n=2
  MICs range: 0.12 mg/L
E. coli; ESBLs, E. coli CTX-M-15, n=2
  MICs range: 0.12 mg/L
E. coli; ESBLs, E. coli VEB-1, n=1
  MICs range: 0.12 to 0.25 mg/L
E. coli; Plasmid mediated AmpC or chromosomal AmpC + decreased membrane permeability, E. coli ACC-1, n=1
  MICs range: 0.12 mg/L
E. coli; Plasmid mediated AmpC or chromosomal AmpC + decreased membrane permeability, E. coli CMY-2, n=1
  MICs range: 0.12 mg/L
E. coli; Plasmid mediated AmpC or chromosomal AmpC + decreased membrane permeability, E. coli CMY-10, n=1
  MICs range: 0.12 mg/L
E. coli; Plasmid mediated AmpC or chromosomal AmpC + decreased membrane permeability, E. coli DHA-1, n=1
  MICs range: 0.12 mg/L
E. coli; Plasmid mediated AmpC or chromosomal AmpC + decreased membrane permeability, E. coli Extended spectrum cephalosporinase, n=1
  MICs range: 0.12 mg/L
E. coli; Plasmid mediated AmpC or chromosomal AmpC + decreased membrane permeability, E. coli Overexpressed cephalosporinase, n=1
  MICs range: 16 mg/L
P. mirabilis [10]
  MICs range: 0.25 mg/L
P. stuartii [11]
  MICs range: 12 mg/L
E. cloacae [12]; E. cloacae GES-5, n=1
  MICs range: >32 mg/L
E. cloacae [12]; E. cloacae IMP-8, n=2
  MICs range: 0.75 to 1.5 mg/L
E. cloacae [12]; E. cloacae KPC-2, n=7
  MICs range: 1 to 24 mg/L
E. cloacae [12]; E. cloacae NDM-1, n=1
  MICs range: 2 mg/L
E. cloacae [12]; E. cloacae NMC-A, n=1
  MICs range: 16 mg/L
E. cloacae [12]; E. cloacae OXA-48, n=3
  MICs range: 0.5 to 1 mg/L
E. cloacae [12]; ESBLs, E. cloacae CTX-M-15, n=3
  MICs range: 0.12 mg/L
E. cloacae [12]; ESBLs, E. cloacae VEB-1, n=1
  MICs range: 0.12 mg/L
E. cloacae [12]; Plasmid mediated AmpC or chromosomal AmpC + decreased membrane permeability, E. cloacae Overexpressed cephalosporinase, n=7
  MICs range: 0.12 to 16^ mg/L
